The values that follow come from US20230058954A1, “APREPITANT FOR USE IN THE TOPICAL TREATMENT OF FACIAL NEURALGIA” (ASSISTANCE PUBLIQUE - HOPITAUX DE PARIS, priority 2020, published 2023).

The structures appear in SMILES notation.

The subject of the test is patients suffering from facial neuralgia. The test is described as follows: Earlier treatments of the same patients (not relieved by). In kind it is in vivo, human.
[1] abbreviates: Patient 3, post-zooster facial neuralgia.

Consider `CCC(=O)C(CC(C)N(C)C)(c1ccccc1)c1ccccc1` (stereo not drawn) [methadone], for which the “relief of pain by earlier treatment” value (Patient 2, facial neuralgia) is recorded as “No relieved”.
`CNC1(c2ccccc2Cl)CCCCC1=O` (stereo not drawn) [ketamine]: for the setting “Patient 1, trigeminal neuralgia”, the “relief of pain by earlier treatment” value is given as “No relieved”.
As to `NCC1(CC(=O)O)CCCCC1` [gabapentin], the “relief of pain by earlier treatment” value (Patient 2, facial neuralgia) is “No relieved”.
Consider `CN(C)CCC=C1c2ccccc2CCc2ccccc21` [amitriptyline], for which the “relief of pain by earlier treatment” value (Patient 2, facial neuralgia) is listed as “No relieved” and the “relief of pain by earlier treatment” value under setting [1] is on record as “No relieved”.
Turning to `CNCC[C@H](Oc1cccc2ccccc12)c1cccs1` [duloxetine], the “relief of pain by earlier treatment” value (Patient 2, facial neuralgia) was “No relieved”.
For the compound `COc1cccc(C2(O)CCCCC2CN(C)C)c1` (stereo not drawn) [tramadol], the “relief of pain by earlier treatment” value under setting [1] was “No relieved”.
Consider `CC(C)C[C@H](CN)CC(=O)O` [pregabalin], for which the “relief of pain by earlier treatment” value is given as “No relieved” (Patient 2, facial neuralgia) and “No relieved” under setting [1].
